According to patent publication US10405547B2, “Substituted cyclic amides as herbicides” (FMC Corporation, priority 2015, dated 2019):

How the values were obtained:
Assay type in all cases: in vivo
[1] = tested on: foxtail, giant (Setaria faberii); test: Test A preemergence, giant foxtail; conditions: 0 to 100 scale (0 no effect, 100 complete control)
Procedure, shortened: (§1)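 Ratings use a 0–100 scale, where 0 means no effect and 100 means complete control, and come from visual comparison with untreated plants roughly 10 days after treatment. Compounds were applied in a surfactant-containing, non-phytotoxic solvent, either to soil after seeding or to foliage of small seedlings.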

[2] = tested on: corn (Zea mays); test: Test A postemergence, corn; conditions: visual injury, 0 to 100 scale (0 no effect, 100 complete control), approximately 10 days
Procedure, shortened: as §1

[3] = tested on: pigweed (Amaranthus retroflexus); test: Test A postemergence, pigweed; conditions: visual injury, 0 to 100 scale (0 no effect, 100 complete control), approximately 10 days
Procedure, shortened: as §1

[4] = tested on: ryegrass, Italian (Lolium multiflorum); test: Test A preemergence, Italian ryegrass; conditions: 0 to 100 scale (0 no effect, 100 complete control)
Procedure, shortened: as §1

[5] = tested on: galium (catchweed bedstraw, Galium aparine); test: Test A postemergence, galium; conditions: visual injury, 0 to 100 scale (0 no effect, 100 complete control), approximately 10 days
Procedure, shortened: as §1

[6] = tested on: ducksalad (Heteranthera limosa); test: Test B flooded paddy test, ducksalad; conditions: applied to paddy water, visual rating after 13 to 15 days, scale 0 (no effect) to 100 (complete control)
Procedure, shortened: (§2)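 In-water treatment: compound dosed into 3 cm flood over soil, water level unchanged throughout. Controls run alongside; visual assessment at day 13–15.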

[7] = tested on: kochia (Kochia scoparia); test: Test A postemergence, kochia; conditions: visual injury, 0 to 100 scale (0 no effect, 100 complete control), approximately 10 days
Procedure, shortened: as §1

[8] = tested on: blackgrass (Alopecurus myosuroides); test: Test A postemergence, blackgrass; conditions: visual injury, 0 to 100 scale (0 no effect, 100 complete control), approximately 10 days
Procedure, shortened: as §1

[9] = tested on: ragweed (common ragweed, Ambrosia elatior); test: Test A postemergence, ragweed; conditions: visual injury, 0 to 100 scale (0 no effect, 100 complete control), approximately 10 days
Procedure, shortened: as §1

[10] = tested on: rice (Oryza sativa); test: Test B flooded paddy test, rice; conditions: applied to paddy water, visual rating after 13 to 15 days, scale 0 (no effect) to 100 (complete control)
Procedure, shortened: as §2

[11] = tested on: barnyardgrass (Echinochloa crus-galli); test: Test A preemergence, barnyardgrass; conditions: 0 to 100 scale (0 no effect, 100 complete control)
Procedure, shortened: as §1

[12] = tested on: ryegrass, Italian (Lolium multiflorum); test: Test A postemergence, Italian ryegrass; conditions: visual injury, 0 to 100 scale (0 no effect, 100 complete control), approximately 10 days
Procedure, shortened: as §1

[13] = tested on: pigweed (Amaranthus retroflexus); test: Test A preemergence, pigweed; conditions: 0 to 100 scale (0 no effect, 100 complete control)
Procedure, shortened: as §1

[14] = tested on: sedge, umbrella (small-flower umbrella sedge, Cyperus difformis); test: Test B flooded paddy test, umbrella sedge; conditions: applied to paddy water, visual rating after 13 to 15 days, scale 0 (no effect) to 100 (complete control)
Procedure, shortened: as §2

[15] = tested on: kochia (Kochia scoparia); test: Test A preemergence, kochia; conditions: 0 to 100 scale (0 no effect, 100 complete control)
Procedure, shortened: as §1

[16] = tested on: barnyardgrass (Echinochloa crus-galli); test: Test B flooded paddy test, barnyardgrass; conditions: applied to paddy water, visual rating after 13 to 15 days, scale 0 (no effect) to 100 (complete control)
Procedure, shortened: as §2

[17] = tested on: barnyardgrass (Echinochloa crus-galli); test: Test A postemergence, barnyardgrass; conditions: visual injury, 0 to 100 scale (0 no effect, 100 complete control), approximately 10 days
Procedure, shortened: as §1

[18] = tested on: ragweed (common ragweed, Ambrosia elatior); test: Test A preemergence, ragweed; conditions: 0 to 100 scale (0 no effect, 100 complete control)
Procedure, shortened: as §1

[19] = tested on: foxtail, giant (Setaria faberii); test: Test A postemergence, giant foxtail; conditions: visual injury, 0 to 100 scale (0 no effect, 100 complete control), approximately 10 days
Procedure, shortened: as §1

[20] = tested on: wheat (Triticum aestivum); test: Test A postemergence, wheat; conditions: visual injury, 0 to 100 scale (0 no effect, 100 complete control), approximately 10 days
Procedure, shortened: as §1

| SMILES | Plant response rating, Foxtail, Giant ([1]; 125 g ai/ha) | Plant response rating, Foxtail, Giant ([1]; 500 g ai/ha) | Plant response rating, Corn ([2]; 125 g ai/ha) | Plant response rating, Corn ([2]; 500 g ai/ha) | Plant response rating, Pigweed ([3]; 125 g ai/ha) | Plant response rating, Pigweed ([3]; 500 g ai/ha) | Plant response rating, Ryegrass, Italian ([4]; 125 g ai/ha) | Plant response rating, Ryegrass, Italian ([4]; 500 g ai/ha) | Plant response rating, Galium ([5]; 125 g ai/ha) | Plant response rating, Galium ([5]; 500 g ai/ha) | Plant response rating, Kochia ([7]; 125 g ai/ha) | Plant response rating, Kochia ([7]; 500 g ai/ha) | Plant response rating, Blackgrass ([8]; 125 g ai/ha) | Plant response rating, Blackgrass ([8]; 500 g ai/ha) | Plant response rating, Ragweed ([9]; 125 g ai/ha) | Plant response rating, Ragweed ([9]; 500 g ai/ha) | Plant response rating, Barnyardgrass ([11]; 125 g ai/ha) | Plant response rating, Barnyardgrass ([11]; 500 g ai/ha) | Plant response rating, Ryegrass, Italian ([12]; 125 g ai/ha) | Plant response rating, Ryegrass, Italian ([12]; 500 g ai/ha) | also measured |
| --- | --- | --- | --- | --- | --- | --- | --- | --- | --- | --- | --- | --- | --- | --- | --- | --- | --- | --- | --- | --- | --- |
| O=C1NCC(c2ccccc2Cn2ccc(C(F)(F)F)n2)C1C(=O)Nc1ccc(F)c(F)c1F (centres unmarked) [Compound 58] | 60 | 90 | 0 | 0 | 0 | 0 | 0 | 20 | 0 | 20 | 0 | 20 | 0 | 0 | 0 | 0 | 30 | 90 | 0 | 0 | Plant response rating, Ducksalad (Flood) ([6]; 250 g ai/ha): 0; Plant response rating, Rice (Flood) ([10]; 250 g ai/ha): 0; Plant response rating, Pigweed ([13]; 125 g ai/ha): 0; Plant response rating, Pigweed ([13]; 500 g ai/ha): 0; Plant response rating, Sedge, Umbrella (Flood) ([14]; 250 g ai/ha): 0; Plant response rating, Kochia ([15]; 125 g ai/ha): 0; Plant response rating, Barnyardgrass (Flood) ([16]; 250 g ai/ha): 0; Plant response rating, Barnyardgrass ([17]; 125 g ai/ha): 0; Plant response rating, Barnyardgrass ([17]; 500 g ai/ha): 60; Plant response rating, Ragweed ([18]; 125 g ai/ha): 0; Plant response rating, Ragweed ([18]; 500 g ai/ha): 0; Plant response rating, Foxtail, Giant ([19]; 125 g ai/ha): 30; Plant response rating, Foxtail, Giant ([19]; 500 g ai/ha): 60; Plant response rating, Wheat ([20]; 125 g ai/ha): 0; Plant response rating, Wheat ([20]; 500 g ai/ha): 0 |
| O=C1NCC(c2cccc(Oc3ccccn3)c2)C1C(=O)Nc1ccc(F)c(F)c1F (centres unmarked) [Compound 42] | 80 | 90 | 0 | 0 | 0 | 0 | 0 | 0 | 0 | 30 | 0 | 0 | 0 | 0 | 0 | 0 | 40 | 80 | 0 | 0 | Plant response rating, Ducksalad (Flood) ([6]; 500 g ai/ha): 80; Plant response rating, Rice (Flood) ([10]; 500 g ai/ha): 0; Plant response rating, Pigweed ([13]; 125 g ai/ha): 0; Plant response rating, Pigweed ([13]; 500 g ai/ha): 10; Plant response rating, Sedge, Umbrella (Flood) ([14]; 500 g ai/ha): 0; Plant response rating, Kochia ([15]; 125 g ai/ha): 0; Plant response rating, Kochia ([15]; 500 g ai/ha): 0; Plant response rating, Barnyardgrass (Flood) ([16]; 500 g ai/ha): 0; Plant response rating, Barnyardgrass ([17]; 125 g ai/ha): 40; Plant response rating, Barnyardgrass ([17]; 500 g ai/ha): 60; Plant response rating, Ragweed ([18]; 125 g ai/ha): 0; Plant response rating, Ragweed ([18]; 500 g ai/ha): 0; Plant response rating, Foxtail, Giant ([19]; 125 g ai/ha): 50; Plant response rating, Foxtail, Giant ([19]; 500 g ai/ha): 70; Plant response rating, Wheat ([20]; 125 g ai/ha): 0; Plant response rating, Wheat ([20]; 500 g ai/ha): 0 |
